Experimental findings from the NIST ThermoML archive (doi:10.1016/j.fluid.2005.09.025) are described below.

The conditions of this data set: 298.15 K, 101.33 kPa, Liquid.

± gives the expanded uncertainty stated by the source.

Usually mass density stands for the mass of a sample divided by its volume. Turning to `CCCC(C)C` [2-methylpentane], where the note is “Vibrating tube method”, the mass density came out at 648.45 ± 0.22 kg/m3.

In the case of `CN(C)C=O` [dimethylformamide], the mass density (Vibrating tube method) came out at 943.81 ± 0.09 kg/m3.

Take `CO` [methanol]: the mass density (Vibrating tube method) came out at 786.55 ± 0.16 kg/m3. Regarding `CC1CCCCC1` [methylcyclohexane], the mass density stood at 764.96 ± 0.35 kg/m3.
